Test results reported in ChEMBL document CHEMBL1201862, “PubChem BioAssay data set” (2004).
Calls of active or inactive are those of the source.

Experiments:
[1] = inhibitors of Bluetongue virus cytopathic effect, confirmation, arbovirus, BSR cells (AID 1250); type: functional;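 further: protection from viral cytopathic effect measured as cell viability by ATP luminescence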
[2] = target: FAD-linked sulfhydryl oxidase ALR (Homo sapiens, UniProt P55789); test: inhibitors of human ALR sulfhydryl oxidase, dose response, biochemical, H2O2 detection, luminescence, cherry-pick (AID 493248)
Sequence of FAD-linked sulfhydryl oxidase ALR (P55789 whole entry): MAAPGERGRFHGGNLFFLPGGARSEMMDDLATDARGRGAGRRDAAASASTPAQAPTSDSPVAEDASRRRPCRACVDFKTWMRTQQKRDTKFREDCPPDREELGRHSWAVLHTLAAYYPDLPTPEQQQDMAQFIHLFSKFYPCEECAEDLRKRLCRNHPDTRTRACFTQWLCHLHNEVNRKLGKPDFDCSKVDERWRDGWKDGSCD

[3] = M. tuberculosis H37Rv growth inhibitors, H37Rv strain (AID 1626); type: functional
[4] = growth suppression of PTEN-null colon cells, dose response, cell-based, HCT116 PTEN knockout (AID 1047); type: functional;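 further: HCT116 colon tumor cells with PTEN knocked out; cells exposed to compound for 60 hours before readout; potency for loss of cell viability measured by luminescence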
[5] = growth suppression of beta-catenin-knockout colon cells, dose response, cell-based, HCT116, human colon tumor (AID 1045); type: functional;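 further: HCT116 colon tumor cells with beta catenin knocked out; cells exposed to compound for 60 hours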
Estrogen receptor = target: T1, Estrogen receptor (Homo sapiens, UniProt P03372);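 further: potency for inhibiting coactivator peptide recruitment to the receptor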
T1 sequence (P03372 whole entry): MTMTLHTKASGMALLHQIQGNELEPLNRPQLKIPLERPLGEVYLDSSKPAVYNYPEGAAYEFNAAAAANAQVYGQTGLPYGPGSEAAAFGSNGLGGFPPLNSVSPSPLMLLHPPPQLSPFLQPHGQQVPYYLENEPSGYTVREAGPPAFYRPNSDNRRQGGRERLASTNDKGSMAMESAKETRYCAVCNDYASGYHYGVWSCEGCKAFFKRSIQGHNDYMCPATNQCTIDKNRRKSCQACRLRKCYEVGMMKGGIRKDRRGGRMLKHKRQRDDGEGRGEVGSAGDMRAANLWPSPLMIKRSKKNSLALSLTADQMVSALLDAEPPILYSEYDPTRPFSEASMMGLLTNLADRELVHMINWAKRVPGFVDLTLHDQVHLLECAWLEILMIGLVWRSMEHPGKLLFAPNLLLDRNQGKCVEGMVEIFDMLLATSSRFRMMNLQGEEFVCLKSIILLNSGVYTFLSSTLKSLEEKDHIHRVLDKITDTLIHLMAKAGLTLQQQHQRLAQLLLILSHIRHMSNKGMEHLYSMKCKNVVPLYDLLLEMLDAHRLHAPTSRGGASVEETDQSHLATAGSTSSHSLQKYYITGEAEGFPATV

[6] = target: T2, Heat shock factor protein 1 (Mus musculus, UniProt P38532); test: HSF1 potentiators in luciferase reporter cells, confirmation, cell-based, NIH3T3, luminescence, dose retest (AID 435004); type: functional;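 further: stress induced by proteasome inhibitor MG132 added 30 min after compound; luciferase reporter driven by HSF1 response element in NIH3T3 cells; actives raise luminescence as potentiators of the MG132 stress response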
T2 sequence (P38532 whole entry): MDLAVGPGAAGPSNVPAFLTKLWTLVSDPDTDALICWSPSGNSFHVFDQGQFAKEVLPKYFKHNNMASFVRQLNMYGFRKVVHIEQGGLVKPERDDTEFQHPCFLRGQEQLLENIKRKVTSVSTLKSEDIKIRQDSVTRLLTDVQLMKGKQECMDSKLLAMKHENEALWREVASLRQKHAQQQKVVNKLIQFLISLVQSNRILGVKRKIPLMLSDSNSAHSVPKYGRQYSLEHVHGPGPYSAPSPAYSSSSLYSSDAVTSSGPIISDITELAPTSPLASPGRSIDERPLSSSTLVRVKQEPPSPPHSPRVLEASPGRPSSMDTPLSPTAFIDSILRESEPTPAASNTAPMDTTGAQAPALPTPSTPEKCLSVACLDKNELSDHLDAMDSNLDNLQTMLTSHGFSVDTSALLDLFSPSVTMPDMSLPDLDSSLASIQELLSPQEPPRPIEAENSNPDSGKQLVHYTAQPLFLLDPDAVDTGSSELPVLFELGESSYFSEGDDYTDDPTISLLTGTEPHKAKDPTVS

[7] = target: T3, Microphthalmia-associated transcription factor (Homo sapiens, UniProt O75030); test: TRPM1 promoter luciferase signal decrease, dose response, MITF inhibitor project, cell-based, SK-MEL-5, cherry-picked, set 3 (AID 493073); type: functional
T3 sequence (O75030 whole entry): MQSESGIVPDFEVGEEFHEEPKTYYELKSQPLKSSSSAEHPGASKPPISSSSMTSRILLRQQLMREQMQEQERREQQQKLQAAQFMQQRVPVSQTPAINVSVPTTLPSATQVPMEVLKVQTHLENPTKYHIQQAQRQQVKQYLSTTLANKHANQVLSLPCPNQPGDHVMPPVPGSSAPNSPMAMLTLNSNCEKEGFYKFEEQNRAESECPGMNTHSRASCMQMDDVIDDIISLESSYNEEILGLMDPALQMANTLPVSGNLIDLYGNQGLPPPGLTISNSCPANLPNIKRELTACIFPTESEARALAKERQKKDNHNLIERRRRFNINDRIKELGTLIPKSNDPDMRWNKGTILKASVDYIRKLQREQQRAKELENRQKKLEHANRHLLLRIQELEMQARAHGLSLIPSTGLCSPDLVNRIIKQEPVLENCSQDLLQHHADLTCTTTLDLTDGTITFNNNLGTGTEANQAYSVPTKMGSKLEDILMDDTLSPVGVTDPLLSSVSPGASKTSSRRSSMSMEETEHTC

[8] = inhibitors of intracellular T. cruzi replication, confirmation, NIH3T3 host cells, beta-gal luminescence (AID 2044); type: functional, cell-based;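 further: intracellular parasites grown in NIH/3T3 mouse fibroblasts as host cells; luminescent beta-galactosidase reporter signal from transgenic T. cruzi replicating inside host cells; inhibitors lower the luminescence signal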
[9] = target: T4, COUP transcription factor 2 (Homo sapiens, UniProt P24468); test: Luminescence-based cell-based high throughput dose response assay to identify inhibitors of COUP-TFII (NR2F2).; type: functional;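 further: HEK293 cells transiently cotransfected with COUP-TFII expression vector and reporter; luciferase reporter luminescence driven by COUP-TFII from the pX2-168 reporter plasmid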
T4 sequence (P24468 whole entry): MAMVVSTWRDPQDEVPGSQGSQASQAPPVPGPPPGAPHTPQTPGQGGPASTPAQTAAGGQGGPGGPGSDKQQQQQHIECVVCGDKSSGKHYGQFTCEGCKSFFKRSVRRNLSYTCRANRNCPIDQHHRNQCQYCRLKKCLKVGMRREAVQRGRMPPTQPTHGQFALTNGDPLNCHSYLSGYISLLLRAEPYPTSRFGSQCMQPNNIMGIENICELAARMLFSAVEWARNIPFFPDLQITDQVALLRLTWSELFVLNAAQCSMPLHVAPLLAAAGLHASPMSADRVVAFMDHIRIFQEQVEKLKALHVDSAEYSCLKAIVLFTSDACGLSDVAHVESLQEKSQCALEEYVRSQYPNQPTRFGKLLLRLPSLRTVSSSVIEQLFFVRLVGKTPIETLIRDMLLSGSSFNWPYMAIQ

[10] = cytotoxicity in HEK-293T NF-kB-Luc cells, dose response, cytotoxicity control for B/T-cell NF-kB inhibitor project, cell-based, uHTS hits (AID 489019); type: functional;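 further: IC50 reflects cytotoxicity as loss of cell viability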
Jurkat = test: antigen receptor-induced NF-kB inhibitors, dose response, Jurkat, luciferase reporter, luminescence, B- and T-cell (AID 489004); type: functional, cell-based; conditions: Homo sapiens;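 further: NF-kB luciferase reporter Jurkat cells stimulated with PMA plus ionomycin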
[11] = C. albicans growth with fluconazole, confirmation, fluorescence, retest (AID 2467); type: functional, cell-based
[12] = NIH-3T3 fibroblast cytotoxicity, dose response, cytotoxicity control, cell-based, fluorescence, Alamar Blue, secondary assay (AID 2327); type: functional;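 further: NIH-3T3 mouse fibroblasts cultured with fluconazole at 8 µg/mL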
[13] = cytotoxicity toward NIH3T3 fibroblasts, dose response, counter-screen, cell-based, ATP luminescence, mouse fibroblasts (AID 2010); type: functional;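 further: cells exposed to compound for about 90 hours before reading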
INS1 = test: beta cell apoptosis inhibitors, cytokine rescue, dose response, luminescence, retest (AID 449756); type: functional, cell-based; conditions: Rattus norvegicus;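 further: cell death triggered by IL-1 beta plus TNF-alpha plus IFN-gamma mixture; protective hits raise ATP signal compared with cytokine alone wells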
[14] = target: Sphingosine 1-phosphate receptor 2 (Homo sapiens, UniProt O95136); test: Dose Response Cell Based Assay for Agonists of the S1P2 Receptor. [Related pubchem assays: 729, 736, 843 ]; type: functional
Sequence of Sphingosine 1-phosphate receptor 2 (O95136 whole entry): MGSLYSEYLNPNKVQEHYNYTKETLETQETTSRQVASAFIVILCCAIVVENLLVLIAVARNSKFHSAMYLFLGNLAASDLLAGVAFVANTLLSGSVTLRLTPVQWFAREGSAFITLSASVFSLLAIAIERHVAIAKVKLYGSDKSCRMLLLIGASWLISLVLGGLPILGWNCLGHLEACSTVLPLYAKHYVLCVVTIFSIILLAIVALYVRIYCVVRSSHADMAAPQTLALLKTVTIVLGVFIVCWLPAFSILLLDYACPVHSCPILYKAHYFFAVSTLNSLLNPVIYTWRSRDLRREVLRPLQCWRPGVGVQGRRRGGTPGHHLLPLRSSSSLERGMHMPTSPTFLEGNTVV

[15] = target: Luciferin 4-monooxygenase (Photinus pyralis, UniProt P08659); test: firefly luciferase enzyme inhibitors, dose response, biochemical, luminescence (AID 1891)
Sequence of Luciferin 4-monooxygenase (P08659 whole entry): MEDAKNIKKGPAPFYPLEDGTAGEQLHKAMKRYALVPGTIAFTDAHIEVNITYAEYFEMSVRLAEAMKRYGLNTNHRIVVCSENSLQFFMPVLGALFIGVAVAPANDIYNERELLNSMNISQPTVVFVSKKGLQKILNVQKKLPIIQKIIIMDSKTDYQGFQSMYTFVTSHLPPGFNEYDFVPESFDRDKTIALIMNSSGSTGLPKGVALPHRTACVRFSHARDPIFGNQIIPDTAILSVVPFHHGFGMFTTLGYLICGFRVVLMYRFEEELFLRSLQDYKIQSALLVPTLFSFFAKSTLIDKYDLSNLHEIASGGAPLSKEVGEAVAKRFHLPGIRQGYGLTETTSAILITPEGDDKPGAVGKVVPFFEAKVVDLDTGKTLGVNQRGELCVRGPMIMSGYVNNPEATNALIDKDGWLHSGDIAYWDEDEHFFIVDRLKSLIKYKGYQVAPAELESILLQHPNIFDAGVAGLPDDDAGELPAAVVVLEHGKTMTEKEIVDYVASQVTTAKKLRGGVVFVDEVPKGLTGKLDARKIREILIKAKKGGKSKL

[16] = Luminescence Cell-Based Dose Confirmation HTS to Identify Inhibitors of Platelet Dense Granule Release. [Related pubchem assays: 1663 (Primary HTS), 1678 (Summary of Project)]; type: functional
[17] = target: T5, Zinc finger protein mex-5 (Caenorhabditis elegans, UniProt Q9XUB2); test: MEX-5/TCR-2 RNA interaction inhibitors, dose response, biochemical, C. elegans, fluorescence polarization (AID 1960)
T5 sequence (Q9XUB2 whole entry): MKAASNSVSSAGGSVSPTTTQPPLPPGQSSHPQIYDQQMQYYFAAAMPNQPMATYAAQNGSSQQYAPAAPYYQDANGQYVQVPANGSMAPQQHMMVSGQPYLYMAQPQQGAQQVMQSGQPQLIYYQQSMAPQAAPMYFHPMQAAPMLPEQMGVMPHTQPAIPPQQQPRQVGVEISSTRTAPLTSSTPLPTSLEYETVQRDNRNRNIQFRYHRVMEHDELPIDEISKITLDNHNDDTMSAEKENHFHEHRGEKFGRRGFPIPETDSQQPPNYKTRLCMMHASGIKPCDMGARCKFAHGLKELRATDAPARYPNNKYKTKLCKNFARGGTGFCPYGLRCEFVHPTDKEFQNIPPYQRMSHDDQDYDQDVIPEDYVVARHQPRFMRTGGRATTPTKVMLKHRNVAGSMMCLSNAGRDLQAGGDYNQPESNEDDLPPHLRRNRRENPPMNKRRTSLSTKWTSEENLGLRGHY

[18] = target: T6, RNA-binding protein pos-1 (Caenorhabditis elegans, UniProt G5EF15); test: inhibitors of POS-1/mex-3 RNA binding, dose response, biochemical, fluorescence polarization (AID 1964);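 further: purified POS-1 fused to maltose binding protein made in E. coli; potency of compounds blocking POS-1 binding to fluorescent RNA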
T6 sequence (G5EF15 whole entry): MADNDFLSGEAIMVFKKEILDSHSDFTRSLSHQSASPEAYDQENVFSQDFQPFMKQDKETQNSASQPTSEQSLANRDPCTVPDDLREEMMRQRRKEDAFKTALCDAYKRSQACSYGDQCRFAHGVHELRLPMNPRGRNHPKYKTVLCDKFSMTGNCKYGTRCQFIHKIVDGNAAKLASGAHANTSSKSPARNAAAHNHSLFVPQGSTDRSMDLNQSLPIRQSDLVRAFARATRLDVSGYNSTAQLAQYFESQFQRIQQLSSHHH

Protein RecA = target: T7, Protein RecA (Mycobacterium tuberculosis, UniProt P9WHJ3); test: Fluorescence Cell-Free Homogeneous Dose Retest to Identify Inhibitors of RecA-Intein Splicing Activity. [Related pubchem assays (depositor defined):AID2097, AID2223, AID489010, AID492950]; type: functional
T7 sequence (P9WHJ3 whole entry): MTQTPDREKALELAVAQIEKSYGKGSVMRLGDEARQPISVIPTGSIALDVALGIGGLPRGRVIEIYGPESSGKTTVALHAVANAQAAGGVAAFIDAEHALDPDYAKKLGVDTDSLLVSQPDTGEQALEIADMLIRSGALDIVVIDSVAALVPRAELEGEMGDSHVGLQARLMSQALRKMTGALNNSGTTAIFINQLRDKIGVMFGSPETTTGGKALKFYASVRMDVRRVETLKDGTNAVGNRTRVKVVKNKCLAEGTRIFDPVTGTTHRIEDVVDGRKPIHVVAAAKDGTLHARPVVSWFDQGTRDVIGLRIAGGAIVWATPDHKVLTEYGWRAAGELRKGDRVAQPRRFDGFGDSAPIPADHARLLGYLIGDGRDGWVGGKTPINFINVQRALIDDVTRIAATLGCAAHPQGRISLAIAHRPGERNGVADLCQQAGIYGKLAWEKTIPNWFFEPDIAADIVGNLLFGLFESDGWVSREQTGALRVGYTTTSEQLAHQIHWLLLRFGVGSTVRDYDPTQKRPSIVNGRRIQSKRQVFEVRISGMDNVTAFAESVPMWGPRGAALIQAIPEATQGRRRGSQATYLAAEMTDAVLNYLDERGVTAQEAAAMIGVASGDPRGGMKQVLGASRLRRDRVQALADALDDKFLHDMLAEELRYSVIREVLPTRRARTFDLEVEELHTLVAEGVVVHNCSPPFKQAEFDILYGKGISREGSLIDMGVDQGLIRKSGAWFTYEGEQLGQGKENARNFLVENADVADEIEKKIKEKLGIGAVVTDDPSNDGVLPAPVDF

For Cc1cccc(C(=O)Nc2scc(CC(C)C)c2C(=O)O)c1, the IC50 [1] was 32.3 µM (active) and the AC50 [2] was 0.016 µM (active).

In the case of COc1cc(-c2cc(C(=O)Nc3nc4ccccc4s3)c3ccccc3n2)cc(OC)c1OC, the IC50 [3] is reported as > 100 µM (active).

In the case of COc1ccc(/C=C/C(O)=C2/C(=O)N(C)C3(C)CC2c2ccccc2O3)cc1 (stereo unspecified), the EC50 [4] is reported as 10.7 µM (active), the EC50 [5] is reported as 8.06 µM (active) and the IC50 (Estrogen receptor) is reported as > 50 µM (not active). For the same compound, the EC50 [6] was > 260 µM (inactive).

For CCOC(=O)/C=C/C(=O)Nc1nccs1, the IC50 [3] was > 100 µM (active).

With COC(=O)c1oc2ccc(Br)cc2c1NC(=O)CCCN1C(=O)c2ccccc2C1=O the IC50 (Estrogen receptor) was 42.3 µM (not active).

In the case of CN(C)c1cc[n+](CC(=O)c2ccc(-c3ccccc3)cc2)cc1, the AC50 [7] is reported as 2.6 µM (active), the EC50 [8] is reported as 0.515 µM (active) and the IC50 [9] is reported as 10.2 µM (inactive). For the same compound, the IC50 [10] was > 80 µM (inactive), the IC50 (Jurkat) was 4.41 µM (active) and the EC50 [11] was 2 µM (active). The EC50 [12] was > 160 µM (inactive), the EC50 [13] was > 60 µM (not active) and the AC50 (INS1) was 1.55 µM (active).

In the case of CC(=O)c1c(C)n(C)c2ccc(O)cc12, the IC50 [3] is reported as > 100 µM (active).

For COc1ccc2cc(S(=O)(=O)NCCCN3CCOCC3)ccc2c1, the EC50 [14] was > 50 µM (not active).

In the case of O=C1CCCC(=O)C1=CNCCc1ccccc1, the EC50 [15] is reported as > 112 µM (not active), the EC50 [14] is reported as > 50 µM (not active) and the EC50 [16] is reported as > 112 µM (not active).

For COC(=O)c1ccc2c(=O)n(CC3CCCO3)c(SCC(=O)Nc3ccccc3Cl)nc2c1 (stereo unspecified), the IC50 (Estrogen receptor) was 20.9 µM (active).

With CC(C)CC1=NN2C(=N)/C(=C/c3c[nH]c4ccccc34)C(=O)N=C2S1 the EC50 [17] was 47.4 µM (active), the EC50 [18] was 34.2 µM (inconclusive) and the IC50 [1] was 32.1 µM (active).

In the case of CCC(C)NC(=O)c1c(N)n(Cc2ccc3c(c2)OCO3)c2nc3ccccc3nc12 (stereo unspecified), the EC50 [4] is reported as 15.3 µM (active), the EC50 [5] is reported as 14.2 µM (active) and the EC50 (Protein RecA) is reported as > 380 µM (inconclusive). For the same compound, the EC50 [14] was 2.41 µM (active).
